The source made the active and inactive calls. The calls are words filed in the database; no cut-off is given here.
Columns and labels:
[1] = molecular target: Vascular endothelial growth factor receptor 3 (Homo sapiens) (UniProt P35916); test: Inhibition of N-terminal GST-tagged recombinant human FLT4 (800 to end residues) at 10 uM relative to control
[2] = molecular target: Calcium/calmodulin-dependent protein kinase type II subunit gamma (Homo sapiens) (UniProt Q13555); test: Inhibition recombinant human CAMKII-gamma at 10 uM relative to control
[3] = molecular target: Serine/threonine-protein kinase BRSK2 (Homo sapiens) (UniProt Q8IWQ3); test: Inhibition of full length N-terminal his6-tagged recombinant human BRSK2 expressed in baculovirus Sf21 cells at 10 uM relative to control
[4] = test system: Fibroblast growth factor receptor 1 (Homo sapiens), P11362 [V561M]; test: Inhibition of N-terminal his6-tagged recombinant human FGFR1 V561M mutant (456 to 765 residues) at 10 uM relative to control
[5] = test system: A549; test: Antimitotic activity against human A549 cells assessed as cell cycle block in G2-M phase measuring by accumulation of 4N DNA content at 10 nmol/L incubated for 24 hrs by PI staining based flow cytometric analysis; assay type: functional
[6] = test system: A549; test: Induction of mitotic arrest in human A549 cells assessed as disordered spindle formation at 20 nmol/L incubated for 16 hrs by alpha-tubulin/DAPI staining based confocal microscopic analysis; assay type: functional, cell-based
[7] = test system: HL-60; test: Antiproliferative activity against human HL-60 cells assessed as growth inhibition incubated for 72 hrs by celltiter-glo assay; assay type: functional
[8] = test system: COLO 205; test: Antiproliferative activity against human COLO 205 cells assessed as growth inhibition incubated for 72 hrs by celltiter-glo assay; assay type: functional
[9] = test system: DU-145; test: Antiproliferative activity against human DU-145 cells assessed as growth inhibition incubated for 72 hrs by celltiter-glo assay; assay type: functional
[10] = test system: A704; test: Antiproliferative activity against human A704 cells assessed as growth inhibition incubated for 72 hrs by celltiter-glo assay; assay type: functional
[11] = test system: MIA PaCa-2; test: Antiproliferative activity against human MIA PaCa-2 cells assessed as growth inhibition incubated for 72 hrs by celltiter-glo assay; assay type: functional
[12] = test system: SK-OV-3; test: Antiproliferative activity against human SK-OV-3 cells assessed as growth inhibition incubated for 72 hrs by celltiter-glo assay; assay type: functional
[13] = test system: MDA-MB-453; test: Antiproliferative activity against human MDA-MB-453 cells assessed as growth inhibition incubated for 72 hrs by celltiter-glo assay; assay type: functional
[14] = test system: H322; test: Antiproliferative activity against human H322 cells assessed as growth inhibition incubated for 72 hrs by celltiter-glo assay; assay type: functional; details: NCI-H322
[15] = test system: ZR-75-1; test: Antiproliferative activity against human ZR-75-1 cells assessed as growth inhibition at > 250 nmol/L incubated for 72 hrs by celltiter-glo assay; assay type: functional, cell-based
[16] = test system: ZR-75-1; test: Growth inhibition of human ZR-75-1 cells assessed as caspase-3/caspase-7 activation at 0.1 nmol/L incubated for 5 to 7 days by […]; assay type: functional, cell-based; details: time 5-7 day
[17] = test system: U2OS; test: Induction of mitotic arrest in human U2OS cells expressing fused cyclin B1-GFP at > 250 nmol/L incubated for 48 hrs by image based analysis; assay type: functional, cell-based
[18] = test system: COLO 205; test: Antitumor activity against human COLO 205 cells xenografted in Nude mouse assessed as tumor growth delay time at 50 mg/kg, ip administered for 12 days; assay type: functional; details: time 12 day
[19] = Antiproliferative activity against human A375P cells assessed as of viable cell signal at minimum maximum cell growth incubated for 72 hrs by celltiter-glo assay relative to control; assay type: functional
[20] = test system: Calu-3; test: Antiproliferative activity against human Calu-3 cells assessed as of viable cell signal at minimum maximum cell growth incubated for 72 hrs by celltiter-glo assay relative to control; assay type: functional
[21] = test system: HCC1954; test: Antiproliferative activity against human HCC1954 cells assessed as of viable cell signal at minimum maximum cell growth incubated for 72 hrs by celltiter-glo assay relative to control; assay type: functional
[22] = test system: HN5; test: Antiproliferative activity against human HN5 cells assessed as of viable cell signal at minimum maximum cell growth incubated for 72 hrs by celltiter-glo assay relative to control; assay type: functional
[23] = test system: NCI-H1155; test: Antiproliferative activity against human NCI-H1155 cells assessed as of viable cell signal at minimum maximum cell growth incubated for 72 hrs by celltiter-glo assay relative to control; assay type: functional
[24] = test system: OVCAR-3; test: Antiproliferative activity against human OVCAR-3 cells assessed as of viable cell signal at minimum maximum cell growth incubated for 72 hrs by celltiter-glo assay relative to control; assay type: functional
[25] = test system: OVCAR-8; test: Antiproliferative activity against human OVCAR-8 cells assessed as of viable cell signal at minimum maximum cell growth incubated for 72 hrs by celltiter-glo assay relative to control; assay type: functional
[26] = test system: Panc 02.03; test: Antiproliferative activity against human Panc 02.03 cells assessed as of viable cell signal at minimum maximum cell growth incubated for 72 hrs by celltiter-glo assay relative to control; assay type: functional
[27] = test system: T47D; test: Antiproliferative activity against human T47D cells assessed as of viable cell signal at minimum maximum cell growth incubated for 72 hrs by celltiter-glo assay relative to control; assay type: functional
[28] = test system: A549; test: Antiproliferative activity against human A549 cells assessed as viable cell signal at maximum growth inhibition incubated for 72 hrs by celltiter-glo assay relative to control; assay type: functional
[29] = test system: Hep 3B2; test: Antiproliferative activity against human Hep3B cells assessed as viable cell signal at maximum growth inhibition incubated for 72 hrs by celltiter-glo assay relative to control; assay type: functional
[30] = test system: HT-1080; test: Antiproliferative activity against human HT-1080 cells assessed as viable cell signal at maximum growth inhibition incubated for 72 hrs by celltiter-glo assay relative to control; assay type: functional
[31] = test system: Jurkat; test: Antiproliferative activity against human Jurkat cells assessed as viable cell signal at maximum growth inhibition incubated for 72 hrs by celltiter-glo assay relative to control; assay type: functional
[32] = test system: MCF7; test: Antiproliferative activity against human MCF7 cells assessed as viable cell signal at maximum growth inhibition incubated for 72 hrs by celltiter-glo assay relative to control; assay type: functional
[33] = test system: MIA PaCa-2; test: Antiproliferative activity against human MIA PaCa-2 cells assessed as viable cell signal at maximum growth inhibition incubated for 72 hrs by celltiter-glo assay relative to control; assay type: functional
[34] = test system: MX1; test: Antiproliferative activity against human MX1 cells assessed as viable cell signal at maximum growth inhibition incubated for 72 hrs by celltiter-glo assay relative to control; assay type: functional
[35] = test system: OVCAR-3; test: Antiproliferative activity against human OVCAR-3 cells assessed as viable cell signal at maximum growth inhibition incubated for 72 hrs by celltiter-glo assay relative to control; assay type: functional
[36] = test system: PC-3; test: Antiproliferative activity against human PC-3 cells assessed as viable cell signal at maximum growth inhibition incubated for 72 hrs by celltiter-glo assay relative to control; assay type: functional
[37] = test system: Raji; test: Antiproliferative activity against human Raji cells assessed as viable cell signal at maximum growth inhibition incubated for 72 hrs by celltiter-glo assay relative to control; assay type: functional
[38] = test system: SK-MEL-28; test: Antiproliferative activity against human SK-MEL-28 cells assessed as viable cell signal at maximum growth inhibition incubated for 72 hrs by celltiter-glo assay relative to control; assay type: functional
[39] = test system: SW-620; test: Antiproliferative activity against human SW620 cells assessed as viable cell signal at maximum growth inhibition incubated for 72 hrs by celltiter-glo assay relative to control; assay type: functional
[40] = test system: T-24; test: Antiproliferative activity against human T24 cells assessed as viable cell signal at maximum growth inhibition incubated for 72 hrs by celltiter-glo assay relative to control; assay type: functional

Chain of Calcium/calmodulin-dependent protein kinase type II subunit gamma (Homo sapiens) (Q13555 whole entry): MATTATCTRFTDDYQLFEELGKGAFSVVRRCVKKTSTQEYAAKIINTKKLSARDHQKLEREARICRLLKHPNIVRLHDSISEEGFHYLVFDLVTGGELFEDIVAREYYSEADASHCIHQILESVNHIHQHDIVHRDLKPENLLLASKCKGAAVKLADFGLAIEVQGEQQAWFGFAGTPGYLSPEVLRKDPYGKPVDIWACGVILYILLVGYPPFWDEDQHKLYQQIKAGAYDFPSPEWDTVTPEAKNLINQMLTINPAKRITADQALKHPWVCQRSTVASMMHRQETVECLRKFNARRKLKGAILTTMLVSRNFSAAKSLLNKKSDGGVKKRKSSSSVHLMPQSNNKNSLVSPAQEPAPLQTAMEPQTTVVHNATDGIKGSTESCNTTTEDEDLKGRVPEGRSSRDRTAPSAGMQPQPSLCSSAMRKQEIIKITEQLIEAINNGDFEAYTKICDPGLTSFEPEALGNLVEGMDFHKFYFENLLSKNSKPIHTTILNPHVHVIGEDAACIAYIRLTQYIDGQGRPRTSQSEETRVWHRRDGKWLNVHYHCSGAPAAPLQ
Chain of Vascular endothelial growth factor receptor 3 (Homo sapiens) (P35916 whole entry): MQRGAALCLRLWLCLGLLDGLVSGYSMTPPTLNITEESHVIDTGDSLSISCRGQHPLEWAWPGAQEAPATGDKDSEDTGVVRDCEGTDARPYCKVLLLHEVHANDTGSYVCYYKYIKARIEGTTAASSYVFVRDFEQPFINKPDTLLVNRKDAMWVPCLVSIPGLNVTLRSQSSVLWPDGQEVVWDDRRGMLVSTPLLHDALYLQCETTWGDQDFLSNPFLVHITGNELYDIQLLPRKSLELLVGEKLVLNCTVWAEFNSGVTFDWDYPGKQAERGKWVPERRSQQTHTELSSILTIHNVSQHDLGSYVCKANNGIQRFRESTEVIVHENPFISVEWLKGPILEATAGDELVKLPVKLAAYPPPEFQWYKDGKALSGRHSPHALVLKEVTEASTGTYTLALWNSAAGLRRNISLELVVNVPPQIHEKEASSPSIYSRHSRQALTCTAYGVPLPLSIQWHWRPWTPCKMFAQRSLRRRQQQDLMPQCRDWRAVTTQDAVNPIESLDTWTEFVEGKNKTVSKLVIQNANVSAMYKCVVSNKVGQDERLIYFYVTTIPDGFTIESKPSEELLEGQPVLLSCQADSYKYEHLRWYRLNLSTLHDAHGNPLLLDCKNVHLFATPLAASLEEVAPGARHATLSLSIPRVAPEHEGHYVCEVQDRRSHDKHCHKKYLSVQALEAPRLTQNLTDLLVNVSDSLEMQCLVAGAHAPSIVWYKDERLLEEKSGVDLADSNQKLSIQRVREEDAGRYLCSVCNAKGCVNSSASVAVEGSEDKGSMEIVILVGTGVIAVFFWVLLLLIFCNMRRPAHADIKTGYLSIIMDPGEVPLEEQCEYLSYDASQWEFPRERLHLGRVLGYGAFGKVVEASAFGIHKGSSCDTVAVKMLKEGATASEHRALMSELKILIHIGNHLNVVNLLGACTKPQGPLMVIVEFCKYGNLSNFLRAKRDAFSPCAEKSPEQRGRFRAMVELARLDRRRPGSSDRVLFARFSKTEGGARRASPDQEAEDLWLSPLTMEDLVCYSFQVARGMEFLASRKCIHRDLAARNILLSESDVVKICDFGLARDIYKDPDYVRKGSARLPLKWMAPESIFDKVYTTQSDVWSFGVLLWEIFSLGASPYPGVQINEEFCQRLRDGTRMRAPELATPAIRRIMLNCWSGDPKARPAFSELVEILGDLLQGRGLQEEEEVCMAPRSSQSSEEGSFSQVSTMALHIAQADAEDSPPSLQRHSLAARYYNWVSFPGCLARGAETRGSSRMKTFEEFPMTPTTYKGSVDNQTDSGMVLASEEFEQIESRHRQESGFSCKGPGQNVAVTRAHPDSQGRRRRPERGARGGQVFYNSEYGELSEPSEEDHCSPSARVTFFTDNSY
Chain of Serine/threonine-protein kinase BRSK2 (Homo sapiens) (Q8IWQ3 whole entry, the tested form may be a part): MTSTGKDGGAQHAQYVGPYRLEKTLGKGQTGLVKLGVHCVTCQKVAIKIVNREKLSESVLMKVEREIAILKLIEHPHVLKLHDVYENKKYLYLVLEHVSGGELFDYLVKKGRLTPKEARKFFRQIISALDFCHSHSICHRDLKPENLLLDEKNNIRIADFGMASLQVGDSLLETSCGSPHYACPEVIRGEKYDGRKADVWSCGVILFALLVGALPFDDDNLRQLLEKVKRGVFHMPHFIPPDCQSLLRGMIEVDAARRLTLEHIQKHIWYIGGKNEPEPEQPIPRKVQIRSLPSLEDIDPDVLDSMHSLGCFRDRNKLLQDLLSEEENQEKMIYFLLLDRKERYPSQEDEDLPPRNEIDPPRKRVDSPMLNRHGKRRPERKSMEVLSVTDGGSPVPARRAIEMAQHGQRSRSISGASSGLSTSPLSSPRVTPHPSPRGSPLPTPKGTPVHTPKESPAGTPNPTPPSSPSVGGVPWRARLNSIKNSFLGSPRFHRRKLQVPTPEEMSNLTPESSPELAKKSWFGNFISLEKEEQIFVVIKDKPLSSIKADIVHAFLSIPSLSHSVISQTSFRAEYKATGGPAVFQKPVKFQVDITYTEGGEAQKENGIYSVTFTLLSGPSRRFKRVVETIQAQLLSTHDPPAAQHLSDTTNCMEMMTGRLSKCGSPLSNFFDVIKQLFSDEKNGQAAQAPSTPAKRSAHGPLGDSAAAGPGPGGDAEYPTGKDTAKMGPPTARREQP
Chain of Fibroblast growth factor receptor 1 (Homo sapiens), P11362 [V561M] (P11362 whole entry V561M, the tested form may be a part): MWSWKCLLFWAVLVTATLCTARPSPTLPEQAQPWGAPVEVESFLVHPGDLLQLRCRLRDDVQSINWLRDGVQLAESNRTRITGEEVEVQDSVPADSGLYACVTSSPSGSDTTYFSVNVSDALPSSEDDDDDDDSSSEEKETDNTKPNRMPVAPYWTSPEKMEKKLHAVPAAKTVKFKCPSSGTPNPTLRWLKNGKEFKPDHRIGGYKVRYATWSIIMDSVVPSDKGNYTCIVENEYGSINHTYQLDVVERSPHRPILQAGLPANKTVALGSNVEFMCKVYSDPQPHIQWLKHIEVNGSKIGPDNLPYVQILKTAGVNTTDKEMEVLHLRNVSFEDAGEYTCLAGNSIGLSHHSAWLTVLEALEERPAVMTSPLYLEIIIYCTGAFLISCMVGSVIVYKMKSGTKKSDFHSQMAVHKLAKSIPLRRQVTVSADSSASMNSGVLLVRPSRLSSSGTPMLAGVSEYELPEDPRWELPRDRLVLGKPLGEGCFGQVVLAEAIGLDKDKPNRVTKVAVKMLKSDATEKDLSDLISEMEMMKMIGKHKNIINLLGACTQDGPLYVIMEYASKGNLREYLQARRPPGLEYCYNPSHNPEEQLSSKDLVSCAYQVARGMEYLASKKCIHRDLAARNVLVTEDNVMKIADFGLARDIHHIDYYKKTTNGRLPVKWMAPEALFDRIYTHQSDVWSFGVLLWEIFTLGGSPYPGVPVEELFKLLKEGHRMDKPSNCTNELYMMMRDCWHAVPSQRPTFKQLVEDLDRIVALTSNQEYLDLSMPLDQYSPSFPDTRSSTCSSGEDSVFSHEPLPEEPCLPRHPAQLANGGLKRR

Work on `C[C@@H](Oc1cc(-n2cnc3ccc(CN4CCN(C)CC4)cc32)sc1C(N)=O)c1ccccc1C(F)(F)F` [GSK-461364] yielded an inhibition [1] of 87%, an inhibition [2] of 84% and an inhibition [3] of 79%. For the same compound, the inhibition [4] was 62%, the Activity [5] was “Active” and the Activity [6] was “Active”. The GI50 [7] was 17.5 nM, the GI50 [8] was 14.2 nM and the GI50 [9] was 24.2 nM. For the same compound, the GI50 [10] was 183 nM, the GI50 [11] was 39.9 nM and the GI50 [12] was 28.9 nM. For the same compound, the GI50 [13] was 13.4 nM, the GI50 [14] was 20.2 nM and the Activity [15] was “Active”. For the same compound, the Activity [16] was “Active”, the Activity [17] was “Active” and the Time [18] was 62 days. For the same compound, the Emin [19] was 220.5%, the Emin [20] was 115.6% and the Emin [21] was 90.9%. The Emin [22] was 39.8%, the Emin [23] was 119.2% and the Emin [24] was 164%. For the same compound, the Emin [25] was 46.5%, the Emin [26] was 192% and the Emin [27] was 205%. The Emax [28] was 632%, the Emax [29] was 220% and the Emax [30] was 223%. It also gave an Emax [31] of 753%, an Emax [32] of 429% and an Emax [33] of 580%. For the same compound, the Emax [34] was 498%, the Emax [35] was 496% and the Emax [36] was 582%. The Emax [37] was 434%, the Emax [38] was 353% and the Emax [39] was 634%. It also gave an Emax [40] of 692%.
